Data taken from US20080213810A1, “Screening Method for Hiv Rt Inhibitors” (priority 2005, published 2008).

Molecular target: HIV RT (Human immunodeficiency virus type 1 group M subtype B, UniProt P04585)
Experiment: Enzyme kinetics studies (1/v versus 1/[dTTP])
Assay type: biochemical
Conditions: 40-3 μM dTTP, 2-0 μM compound 1, poly(rA)oligo(dT); lines cross at the Y-axis intercept
Description: The enzyme kinetics studies were carried out using a protocol involving a 4×5 matrix of varying substrate and inhibitor concentrations over ranges of 40-3 μM of dTTP and 2-0 μM of compound 1.
The reaction mixtures (50 μl) further contained 50 mM Tris.HCl (pH 7.8), 5 mM dithiothreitol, […], 500 μM EDTA, 150 mM KCl, 5 mM MgCl2, 0.15 mM of the template/primer poly(rA)oligo(dT) and 0.06% Triton X-100. The reaction mixtures were incubated at 37° C. for 15 min, at which time 100 μl of calf thymus DNA ([…]), 2 ml of Na4P207 (0.1 M in 1 M HCl), and 2 ml of trichloroacetic acid (10% v/v) were added. The solutions were kept on ice for 30 min, after which the acid-insoluble material was washed and analyzed for radioactivity. When the reciprocal of the reaction velocity (1/v) is plotted against the reciprocal of the substrate concentration (1/[dTTP]) in the presence of different concentrations of compound 1, the graph (See FIG. 1) is obtained.
Since all the lines cross at the intercept with the Y-axis it is clear that this compound has a competitive mode of HIV RT inhibition.

Q: How did the “mode of HIV RT inhibition” value turn out when `Cn1c2ccccc2c2c1cc(C#N)c(=O)n2-c1ccc([N+](=O)[O-])cc1` [Compound 1] was run?
A: competitive
